Test results taken from patent US8129366B2, “VLA-4 inhibitory drug” (Daiichi Sankyo Company, Limited, priority 2005, dated 2012).

Target: T1, hα4 and β1 integrins (Homo sapiens, UniProt P05556+P13612)
T1 construct: expressed in transfected cells; host or cells: CHO cells
Experiment: In vitro inhibition of binding between CHO cells expressing hα4 and β1 integrins and Eu3+-hVCAM-1 D1D7-IgG
Details: for Ki: CHO cells expressing hα4 and β1 integrins, Eu3+-hVCAM-1 D1D7-IgG ligand, without HSA; for IC50: in the presence of 3% human serum albumin (HSA final concentration 3%)
Description: CHO cells which forcibly expressed hα4 and β1 integrins through transfection thereof, were inoculated into a Costar 3599 plate (3×10^4 cells/100 μl/well), and cultured for two days. The cells in the wells were washed two times with buffer A*, and then Eu^3+-hVCAM-1 D1D7-IgG diluted with assay buffer** to 2 nM was added in an amount of 50 μl/well. The substance under test diluted with 26 DMSO-assay buffer (in the co-presence or absence of 6% human serum albumin) was added in an amount of 50 μl/well (adding separately diluted solution to the wells for performing Scatchard analysis), the contents were stirred for 5 minutes with a plate mixer, and then the plate was left to stand still for one hour at room temperature. The binding inhibitory activity in the presence of human serum albumin (HSA) was examined by diluting the specimen with 26 DMSO-assay buffer containing 6% HSA (SIGMA Corp., c/n A-1653), and adding the resultant (HSA final concentration 3%). After 30 to 60 minutes of the addition of specimen, the plate contents were washed 4 times with buffer A at 4° C., an enhancing reagent (DELFIA SA) was added in an amount of 100 μl/well, and the plate was shaken for 5 minutes using a plate mixer. Subsequently, the fluorescence intensity was measured with a time-resolved fluorometer (DELFIA Wallac). The IC50 of the substance under test (the concentration for 50% inhibition of the binding between CHO cells and Eu^3+-hVCAM-1 D1D7-IgG) was determined from the binding rate obtained from the calculating expression of [(FT−FNS)−(FI−FNS)]/[(FT−FNS)]×100. Here, FT represents the fluorescence intensity of a well not containing the substance under test; FNS represents the fluorescence intensity of a well not containing the substance under test and hVCAM-1 D1D7-IgG; and FI represents the fluorescence intensity of a well containing the substance under test. The Kd value which represents the strength of binding, and Bmax (maximum binding amount) were estimated to be in the range of 0.06 to 20 nM according to the Scatchard analysis method. The evaluation results of the Ki value of the substance under test, and of the IC50 value in the presence of 3% HSA are presented in Tables 2 to 7.
The Ki value was calculated according to the above-described expression. ([L] is the ligand concentration)
[* buffer A: 25 mM HEPES (pH 7.5), 150 mM NaCl, 1 mM Ca^2+, 1 mM Mg^2+, 4 mM Mn2+;
** assay buffer: 25 mM HEPES (pH=7.5), 150 mM NaCl, 1 mM Ca^2+, 1 mM Mg^2+, 4 mM Mn^2+, 0.1% BSA, 20 μM DTPA, with/without 6% ALBUMIN, HUMAN SERUM (C/N A-1653, SIGMA)]

T1 sequence (P13612 34-1032): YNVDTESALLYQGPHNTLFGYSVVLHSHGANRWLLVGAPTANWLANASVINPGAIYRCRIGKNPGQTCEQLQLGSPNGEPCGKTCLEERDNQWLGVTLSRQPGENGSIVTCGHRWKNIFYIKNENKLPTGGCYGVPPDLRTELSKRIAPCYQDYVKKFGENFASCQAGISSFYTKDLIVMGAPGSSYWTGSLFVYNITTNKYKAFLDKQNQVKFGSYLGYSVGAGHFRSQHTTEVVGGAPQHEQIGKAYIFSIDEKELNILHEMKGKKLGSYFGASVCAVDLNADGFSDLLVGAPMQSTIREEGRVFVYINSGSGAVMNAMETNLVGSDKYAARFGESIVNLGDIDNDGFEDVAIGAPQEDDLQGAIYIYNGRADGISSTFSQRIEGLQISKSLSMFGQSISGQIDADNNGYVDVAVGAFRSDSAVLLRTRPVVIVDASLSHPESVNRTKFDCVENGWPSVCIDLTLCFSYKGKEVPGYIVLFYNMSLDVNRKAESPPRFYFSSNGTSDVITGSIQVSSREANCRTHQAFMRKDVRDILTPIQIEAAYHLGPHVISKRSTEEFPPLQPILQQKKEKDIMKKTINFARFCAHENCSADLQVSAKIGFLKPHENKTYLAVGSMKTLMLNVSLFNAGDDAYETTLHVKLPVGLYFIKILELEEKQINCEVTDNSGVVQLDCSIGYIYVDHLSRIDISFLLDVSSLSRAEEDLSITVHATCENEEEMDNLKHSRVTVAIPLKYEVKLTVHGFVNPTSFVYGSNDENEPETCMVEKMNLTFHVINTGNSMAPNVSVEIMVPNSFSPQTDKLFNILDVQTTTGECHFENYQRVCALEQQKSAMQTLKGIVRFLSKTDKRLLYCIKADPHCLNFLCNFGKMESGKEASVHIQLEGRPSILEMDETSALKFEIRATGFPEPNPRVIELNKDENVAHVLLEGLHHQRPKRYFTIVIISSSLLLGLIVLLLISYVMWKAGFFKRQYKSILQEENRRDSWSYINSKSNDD
T1 sequence (P05556 21-798): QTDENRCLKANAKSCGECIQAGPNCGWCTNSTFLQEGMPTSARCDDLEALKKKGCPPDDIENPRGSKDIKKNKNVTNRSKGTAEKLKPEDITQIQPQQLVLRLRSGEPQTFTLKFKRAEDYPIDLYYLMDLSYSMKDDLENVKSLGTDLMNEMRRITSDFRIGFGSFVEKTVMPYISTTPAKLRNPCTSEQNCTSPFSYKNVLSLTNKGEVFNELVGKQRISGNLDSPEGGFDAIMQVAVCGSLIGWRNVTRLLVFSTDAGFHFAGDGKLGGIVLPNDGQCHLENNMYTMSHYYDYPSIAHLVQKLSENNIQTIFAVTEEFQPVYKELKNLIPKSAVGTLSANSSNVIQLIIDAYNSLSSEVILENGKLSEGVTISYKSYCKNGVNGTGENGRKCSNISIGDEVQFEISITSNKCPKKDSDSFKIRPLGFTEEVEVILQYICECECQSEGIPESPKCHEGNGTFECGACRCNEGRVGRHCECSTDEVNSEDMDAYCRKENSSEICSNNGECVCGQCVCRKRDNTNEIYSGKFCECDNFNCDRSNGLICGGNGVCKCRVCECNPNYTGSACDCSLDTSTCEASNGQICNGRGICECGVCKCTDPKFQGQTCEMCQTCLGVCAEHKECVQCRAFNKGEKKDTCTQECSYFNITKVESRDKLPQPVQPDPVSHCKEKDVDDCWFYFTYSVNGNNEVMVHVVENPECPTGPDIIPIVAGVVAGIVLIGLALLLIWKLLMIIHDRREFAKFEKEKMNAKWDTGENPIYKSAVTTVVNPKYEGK

SMILES | Ki | IC50
COC1CN([C@H]2C[C@@H](CO[C@H]3CC[C@H](C(=O)O)CC3)N(C(=O)Cc3cc(Cl)c(NC(=O)c4coc5ccccc45)cc3Cl)C2)C1 [Example 6, Trans-4-[1-[[4-[(benzo[b]furan-3-ylcarbonyl)amino]-2,5-dichlorophenyl]acetyl]-(4S)-(3-methoxyazetidin-1-yl)-(2S)-pyrrolidinylmethoxy]cyclohexanecarboxylic acid] | 5.9 nM | 76 nM
CCC1(OC)CN([C@H]2C[C@@H](CO[C@H]3CC[C@H](C(=O)O)CC3)N(C(=O)Cc3cc(Cl)c(NC(=O)c4csc5ccccc45)cc3F)C2)C1 [Example 17, Trans-4-[1-[[4-[(benzo[b]thiophen-3-ylcarbonyl)amino]-5-chloro-2-fluorophenyl]acetyl]-(4S)-(3-ethyl-3-methoxyazetidin-1-yl)-(2S)-pyrrolidinylmethoxy]cyclohexanecarboxylic acid] | 1.8 nM | 48 nM
CN(C)C1CN([C@H]2C[C@@H](CO[C@H]3CC[C@H](C(=O)O)CC3)N(C(=O)Cc3cc(Cl)c(NC(=O)c4csc5ccccc45)cc3Cl)C2)C1 [Example 23, Trans-4-[1-[[4-[(benzo[b]thiophen-3-ylcarbonyl)amino]-2,5-dichlorophenyl]acetyl]-(4S)-[3-(N,N-dimethylamino)azetidin-1-yl]-(2S)-pyrrolidinylmethoxy]cyclohexanecarboxylic acid] | 2.5 nM | 14 nM
O=C(Nc1cc(F)c(CC(=O)N2C[C@@H](N3CCC(F)(F)C3)C[C@H]2CO[C@H]2CC[C@H](C(=O)O)CC2)cc1Cl)c1csc2ccccc12 [Example 38, Trans-4-[1-[[4-[(benzo[b]thiophen-3-ylcarbonyl)amino]-5-chloro-2-fluorophenyl]acetyl]-(4S)-(3,3-difluoropyrrolidin-1-yl)-(2S)-pyrrolidinylmethoxy]cyclohexanecarboxylic acid] | 1.7 nM | 24 nM
O=C(Nc1cc(F)c(CC(=O)N2C[C@@H](N3CCC4(CC4)C3)C[C@H]2CO[C@H]2CC[C@H](C(=O)O)CC2)cc1Cl)c1csc2ccccc12 [Example 39, Trans-4-[(4S)-(5-azaspiro[2.4]heptan-5-yl)-1-[[4-[(benzo[b]thiophen-3-ylcarbonyl)amino]-5-chloro-2-fluorophenyl]acetyl]-(2S)-pyrrolidinylmethoxy]cyclohexanecarboxylic acid] | 0.64 nM | 4.9 nM
CC1CCCN1[C@H]1C[C@@H](CO[C@H]2CC[C@H](C(=O)O)CC2)N(C(=O)Cc2cc(Cl)c(NC(=O)c3csc4ccccc34)cc2F)C1 (stereo partly drawn) [Example 40, Trans-4-[1-[[4-[(benzo[b]thiophen-3-ylcarbonyl)amino]-5-chloro-2-fluorophenyl]acetyl]-(4S)-(2-methylpyrrolidin-1-yl)-(2S)-pyrrolidinylmethoxy]cyclohexanecarboxylic acid] | 2 nM | 9.1 nM
CCOC[C@@H]1CCCN1[C@H]1C[C@@H](CO[C@H]2CC[C@H](C(=O)O)CC2)N(C(=O)Cc2cc(Cl)c(NC(=O)c3csc4ccccc34)cc2Cl)C1 [Example 43, Trans-4-[1-[[4-[(benzo[b]thiophen-3-ylcarbonyl)amino]-2,5-dichlorophenyl]acetyl]-(4S)-[(2S)-ethoxymethylpyrrolidin-1-yl]-(2S)-pyrrolidinylmethoxy]cyclohexanecarboxylic acid] | 2 nM | 38 nM
COC[C@H]1CCCN1[C@H]1C[C@@H](CO[C@H]2CC[C@H](C(=O)O)CC2)N(C(=O)Cc2cc(Cl)c(NC(=O)c3csc4ccccc34)cc2F)C1 [Example 44, Trans-4-[1-[[4-[(benzo[b]thiophen-3-ylcarbonyl)amino]-5-chloro-2-fluorophenyl]acetyl]-(4S)-[(2R)-methoxymethylpyrrolidin-1-yl]-(2S)-pyrrolidinylmethoxy]cyclohexanecarboxylic acid] | 6.8 nM | 24 nM
C[C@@H]1CC[C@@H](C)N1[C@H]1C[C@@H](CO[C@H]2CC[C@H](C(=O)O)CC2)N(C(=O)Cc2cc(Cl)c(NC(=O)c3coc4ccccc34)cc2F)C1 [Example 47, Trans-4-[1-[[4-[(benzo[b]furan-3-ylcarbonyl)amino]-5-chloro-2-fluorophenyl]acetyl]-(4S)-[(2R,5R)-dimethylpyrrolidin-1-yl]-(2S)-pyrrolidinylmethoxy]cyclohexanecarboxylic acid] | 18 nM | 52 nM
COC[C@H]1CC[C@H](COC)N1[C@H]1C[C@@H](CO[C@H]2CC[C@H](C(=O)O)CC2)N(C(=O)Cc2cc(Cl)c(NC(=O)c3csc4ccccc34)cc2F)C1 [Example 49] | 4 nM | 62 nM

More lines, now with the values ahead:

Ki | IC50 | SMILES
1.4 nM | 8.2 nM | O=C(Nc1cc(F)c(CC(=O)N2C[C@@H](N3CCC3)C[C@H]2CO[C@H]2CC[C@H](C(=O)O)CC2)cc1Cl)c1csc2ccccc12 [Example 9, Trans-4-[(4S)-(azetidin-1-yl)-1-[[4-[(benzo[b]thiophen-3-ylcarbonyl)amino]-5-chloro-2-fluorophenyl]acetyl]-(2S)-pyrrolidinylmethoxy]cyclohexanecarboxylic acid]
3.5 nM | 21 nM | CC1CN([C@H]2C[C@@H](CO[C@H]3CC[C@H](C(=O)O)CC3)N(C(=O)Cc3cc(Cl)c(NC(=O)c4coc5ccccc45)cc3F)C2)C1 [Example 11, Trans-4-[1-[[4-[(benzo[b]furan-3-ylcarbonyl)amino]-5-chloro-2-fluorophenyl]acetyl]-(4S)-(3-methylazetidin-1-yl)-(2S)-pyrrolidinylmethoxy]cyclohexanecarboxylic acid]
7.7 nM | 64 nM | O=C(Nc1cc(F)c(CC(=O)N2C[C@@H](N3CC(CF)C3)C[C@H]2CO[C@H]2CC[C@H](C(=O)O)CC2)cc1Cl)c1coc2ccccc12 [Example 13, Trans-4-[1-[[4-[(benzo[b]furan-3-ylcarbonyl)amino]-5-chloro-2-fluorophenyl]acetyl]-(4S)-[3-(fluoromethyl)azetidin-1-yl]-(2S)-pyrrolidinylmethoxy]cyclohexanecarboxylic acid]
5.3 nM | 41 nM | COC1(C)CN([C@H]2C[C@@H](CO[C@H]3CC[C@H](C(=O)O)CC3)N(C(=O)Cc3cc(Cl)c(NC(=O)c4cn(C)c5ccccc45)cc3F)C2)C1 [Example 16, Trans-4-[1-[[5-chloro-2-fluoro-4-[(1-methyl-1H-indol-3-ylcarbonyl)amino]phenyl]acetyl]-(4S)-(3-methoxy-3-methylazetidin-1-yl)-(2S)-pyrrolidinylmethoxy]cyclohexanecarboxylic acid]
2.1 nM | 9.2 nM | Cn1cc(C(=O)Nc2cc(F)c(CC(=O)N3C[C@@H](N4CC[C@H](F)C4)C[C@H]3CO[C@H]3CC[C@H](C(=O)O)CC3)cc2Cl)c2ccccc21 [Example 37, Trans-4-[1-[[5-chloro-2-fluoro-4-[(1-methyl-1H-indol-3-ylcarbonyl)amino]phenyl]acetyl]-(4S)-[(3S)-fluoropyrrolidin-1-yl]-(2S)-pyrrolidinylmethoxy]cyclohexanecarboxylic acid]
14 nM | 15 nM | COC[C@@H]1C[C@H](F)CN1[C@H]1C[C@@H](CO[C@H]2CC[C@H](C(=O)O)CC2)N(C(=O)Cc2cc(Cl)c(NC(=O)c3cn(C)c4ccccc34)cc2Cl)C1 [Example 45, Trans-4-[1-[[2,5-dichloro-4-[(1-methyl-1H-indol-3-ylcarbonyl)amino]phenyl]acetyl]-(4S)-[(4S)-fluoro-(2S)-methoxymethylpyrrolidin-1-yl]-(2S)-pyrrolidinylmethoxy]cyclohexane carboxylic acid]
2.6 nM | 9.2 nM | CO[C@H]1CN([C@H]2C[C@@H](CO[C@H]3CC[C@H](C(=O)O)CC3)N(C(=O)Cc3cc(Cl)c(NC(=O)c4cn(C)c5ccccc45)cc3F)C2)C[C@H]1OC [Example 55, Trans-4-[1-[[5-chloro-2-fluoro-4-[(1-methyl-1H-indol-3-ylcarbonyl)amino]phenyl]acetyl]-(4S)-(cis-3,4-dimethoxypyrrolidin-1-yl)-(2S)-pyrrolidinylmethoxy]cyclohexanecarboxylic acid]
